Measurements published in patent publication US8436004B2, “Bicycloaniline derivative” (MSD K.K., priority 2007, dated 2013).
Structures can show the parent of a compound that is named as a salt.

Tested on: Human colon cancer cells WiDr
Experiment: Tumor growth inhibitory effect, WiDr subcutaneous xenograft in nude rats
Assay type: in vivo, F344/N Jcl-rnu nude rats
Details: gemcitabine 5 mg/kg i.v. days 0, 7, 14, Example 1 15 mg/kg oral days 1, 8, 15, n=5
Procedure: Pharmacological Test 4 (Tumor Growth Inhibitory Effect)
Human colon cancer cells WiDr (obtained from ATCC) were implanted into the subcutaneous area of the back of F344/N Jcl-rnu nude rats. 12 days after the implantation, 5 mg/kg of gemcitabine (Gemzar, from Eli Lily) was intravenously administered to them; and after 24 hours, a test compound suspended in a solvent (0.5% methyl cellulose) was orally administered thereto. This was repeated once a week for 3 weeks. The tumor volume (0.5×major diameter×(minor diameter)^2) was measured on days 0, 3, 6, 10, 13, 17, 20, 24 and 27 (the first gemcitabine administration is on day 0). The relative tumor volume was calculated, based on the tumor volume on day 0, as 1. The tumor growth rate (% T/C) was obtained according to the formulae mentioned below.
In case where the tumor volume change from day 0 in the test compound administration group is more than 0 (>0): % T/C=(tumor volume change in the test compound group on days 3, 6, 10, 13, 17, 20, 24 and 27/tumor volume change in the control group on days 3, 6, 10, 13, 17, 20, 24 and 27)×100. In case where the tumor volume change from day 0 in the test compound administration group is less than 0 (<0): % T/C=(tumor volume change in the test compound group on days 3, 6, 10, 13, 17, 20, 24 and 27/tumor volume […] in the test compound group on day 0)×100.
Gemcitabine was administered on days 0, 7 and 14. The compound of Example 1 was administered on days 1, 8 and 15.

CN1Cc2cc(Nc3ncc4c(=N)n(-c5c(Cl)cccc5Cl)c(=O)[nH]c4n3)ccc2C2(CC2)C1 [Example 1, 3-(2,6-dichlorophenyl)-4-imino-7-[(2′-methyl-2′,3′-dihydro-1′H-spiro[cyclopropane-1,4′-isoquinolin]-7′-yl)amino]-3,4-dihydropyrimido[4,5-d]pyrimidin-2(1H)-one dihydrochloride]
% T/C day 3 (day 3): 107%
% T/C day 6 (day 6): 100%
% T/C day 10 (day 10): 87%
% T/C day 13 (day 13): 91%
% T/C day 17 (day 17): 88%
% T/C day 20 (day 20): 85%
% T/C day 24 (day 24): 83%
% T/C day 27 (day 27): 88%
